Test results taken from PMC12155096 (International Journal of Molecular Sciences, 2025).
Where two headings read alike, the source gives them in different places.

Experiments:
[1] = molecular target: human CYP2C9 (Homo sapiens, UniProt P11712)
[2] = molecular target: human CYP2D6 (Homo sapiens, UniProt P10635)
[3] = molecular target: T1, human CYP1A2 (Homo sapiens, UniProt P05177); assay: biochemical
T1 sequence (P05177 1-516): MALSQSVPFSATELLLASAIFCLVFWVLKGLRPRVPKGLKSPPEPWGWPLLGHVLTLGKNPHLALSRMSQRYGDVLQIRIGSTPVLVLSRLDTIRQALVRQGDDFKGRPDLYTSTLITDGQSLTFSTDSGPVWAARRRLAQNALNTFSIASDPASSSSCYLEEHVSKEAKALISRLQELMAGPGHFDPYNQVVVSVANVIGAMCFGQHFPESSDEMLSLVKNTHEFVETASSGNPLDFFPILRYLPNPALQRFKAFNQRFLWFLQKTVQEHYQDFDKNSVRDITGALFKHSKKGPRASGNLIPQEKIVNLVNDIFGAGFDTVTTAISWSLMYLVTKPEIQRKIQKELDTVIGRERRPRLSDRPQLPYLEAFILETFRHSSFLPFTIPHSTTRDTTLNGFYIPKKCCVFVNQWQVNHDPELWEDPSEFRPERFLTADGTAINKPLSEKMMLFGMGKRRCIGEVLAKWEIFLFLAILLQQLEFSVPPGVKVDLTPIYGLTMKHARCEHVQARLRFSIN

[4] = molecular target: T2, human CYP2C19 (Homo sapiens, UniProt P33261); assay: biochemical
T2 sequence (P33261 whole entry): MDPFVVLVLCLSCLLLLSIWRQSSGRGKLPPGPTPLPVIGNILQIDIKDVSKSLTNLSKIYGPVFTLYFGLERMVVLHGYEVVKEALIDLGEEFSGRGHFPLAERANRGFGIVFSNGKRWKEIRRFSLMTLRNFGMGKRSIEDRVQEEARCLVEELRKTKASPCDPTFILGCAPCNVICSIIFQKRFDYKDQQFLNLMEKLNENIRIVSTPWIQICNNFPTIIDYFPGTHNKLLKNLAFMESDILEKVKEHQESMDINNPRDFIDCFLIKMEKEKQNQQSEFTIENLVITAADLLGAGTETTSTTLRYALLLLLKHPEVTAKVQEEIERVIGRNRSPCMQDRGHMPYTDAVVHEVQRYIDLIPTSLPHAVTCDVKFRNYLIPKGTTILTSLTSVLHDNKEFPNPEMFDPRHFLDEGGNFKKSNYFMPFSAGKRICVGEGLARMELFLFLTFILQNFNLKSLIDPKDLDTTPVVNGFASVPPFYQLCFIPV

[5] = molecular target: CYP3A4 (Homo sapiens, UniProt P08684); assay: biochemical
Chain of CYP3A4 (P08684 whole entry): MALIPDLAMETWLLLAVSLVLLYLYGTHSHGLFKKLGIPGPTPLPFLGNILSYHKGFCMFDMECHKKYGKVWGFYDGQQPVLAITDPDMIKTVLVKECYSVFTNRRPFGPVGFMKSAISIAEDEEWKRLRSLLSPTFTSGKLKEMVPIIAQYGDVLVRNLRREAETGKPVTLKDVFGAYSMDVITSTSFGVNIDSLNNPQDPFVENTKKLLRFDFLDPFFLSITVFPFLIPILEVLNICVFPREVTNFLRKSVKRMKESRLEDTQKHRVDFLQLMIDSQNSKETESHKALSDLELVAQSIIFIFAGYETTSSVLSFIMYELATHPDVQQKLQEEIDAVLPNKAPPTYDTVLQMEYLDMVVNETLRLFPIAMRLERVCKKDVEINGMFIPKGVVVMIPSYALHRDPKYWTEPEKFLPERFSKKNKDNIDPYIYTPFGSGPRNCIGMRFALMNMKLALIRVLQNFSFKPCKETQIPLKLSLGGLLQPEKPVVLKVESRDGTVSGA

[6] = molecular target: T2, human CYP2C19
[7] = CYP1A2 AC50 (half-maximal activity concentration)
[8] = CYP2C19 AC50 (half-maximal activity concentration)
[9] = CYP3A4 AC50 (half-maximal activity concentration)

Chain of human CYP2D6 (P10635 whole entry): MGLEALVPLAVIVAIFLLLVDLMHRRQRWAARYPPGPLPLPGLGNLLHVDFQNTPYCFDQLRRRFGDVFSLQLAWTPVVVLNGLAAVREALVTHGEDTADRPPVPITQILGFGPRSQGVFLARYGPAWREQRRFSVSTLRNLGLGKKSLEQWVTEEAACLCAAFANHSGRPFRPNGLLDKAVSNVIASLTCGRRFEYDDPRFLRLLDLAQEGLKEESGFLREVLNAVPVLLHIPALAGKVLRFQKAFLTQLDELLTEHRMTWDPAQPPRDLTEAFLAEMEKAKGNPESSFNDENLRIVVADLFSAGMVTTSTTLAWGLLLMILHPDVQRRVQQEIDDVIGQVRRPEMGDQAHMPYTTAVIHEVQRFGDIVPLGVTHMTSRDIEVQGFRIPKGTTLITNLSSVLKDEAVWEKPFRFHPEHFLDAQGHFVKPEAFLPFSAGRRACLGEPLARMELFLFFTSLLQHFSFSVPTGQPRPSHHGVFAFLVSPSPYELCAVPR
Chain of human CYP2C9 (P11712 whole entry): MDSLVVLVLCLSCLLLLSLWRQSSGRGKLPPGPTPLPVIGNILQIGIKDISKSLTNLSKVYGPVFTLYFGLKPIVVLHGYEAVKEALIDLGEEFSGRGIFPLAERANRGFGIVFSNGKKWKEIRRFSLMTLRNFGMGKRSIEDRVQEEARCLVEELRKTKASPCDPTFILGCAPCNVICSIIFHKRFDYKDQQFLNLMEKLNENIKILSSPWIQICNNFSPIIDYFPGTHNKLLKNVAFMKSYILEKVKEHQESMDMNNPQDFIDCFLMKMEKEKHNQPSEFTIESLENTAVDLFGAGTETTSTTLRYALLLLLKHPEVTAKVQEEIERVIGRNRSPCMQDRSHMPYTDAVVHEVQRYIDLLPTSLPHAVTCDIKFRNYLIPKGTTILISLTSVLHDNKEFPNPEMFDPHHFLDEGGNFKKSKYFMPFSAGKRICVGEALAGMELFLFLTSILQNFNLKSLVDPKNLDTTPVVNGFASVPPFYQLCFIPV

| Compound | CYP2C9 AC50 (half-maximal activity concentration) [1] | CYP2D6 AC50 (half-maximal activity concentration) [2] | AC50 [3, 7] | AC50 [4, 8] | AC50 [5, 9] | CYP2C19 AC50 (half-maximal activity concentration) [6] | AC50 [3] | AC50 [4] | AC50 [5] |
| --- | --- | --- | --- | --- | --- | --- | --- | --- | --- |
| O=C(Cc1ccccc1)c1ccccc1 [1,2-Diphenylethanone] | Inconclusive inhibitor | Inconclusive inhibitor | 12.6 µM | 12.8 µM | 7.68 µM | – | – | – | – |
| CC(=O)c1ccc2ccccc2c1 [2'-Acetonaphthone] | Inactive | Inconclusive inhibitor | 9.34 µM | 45 µM | 34.4 µM | – | – | – | – |
| COC(=O)COc1ccc(Cl)cc1Cl [2,4-D-methyl] | Inactive | Inactive | 15.4 µM | 71.9 µM | 44 µM | – | – | – | – |
| O=C(O)c1ccc(Cl)c(Cl)c1 [3,4-Dichlorobenzoic acid] | Inconclusive inhibitor | Inactive | 59.2 µM | – | 59.7 µM | Inconclusive inhibitor | – | – | – |
| COc1ccc(COC(C)=O)cc1 [4-Methoxybenzyl acetate] | Inactive | Inactive | – | – | – | – | 28.9 µM | 53.7 µM | 40.8 µM |
| O=[N+]([O-])c1cccc2cccnc12 [8-Nitroquinoline] | Inactive | Inactive | 33.9 µM | – | 38 µM | Inconclusive inhibitor | – | – | – |
| COC(=O)c1cccc(C(=O)OC)c1 [Dimethyl isophthalate] | Inactive | Inactive | – | – | – | Inconclusive inhibitor | 9.71 µM | – | 52.6 µM |
| COC(=O)c1ccc(C(=O)OC)cc1 [Dimethyl terephthalate] | Inactive | Inactive | 9.66 µM | – | 40.1 µM | Inactive | – | – | – |
| CCCCc1c(C)nc(NCC)[nH]c1=O [Ethirimol] | Inactive | Inactive | 31.1 µM | – | 31.8 µM | Inconclusive inhibitor | – | – | – |
| CC(=O)[C@H]1CC[C@H]2[C@@H]3CC[C@H]4C[C@](C)(O)CC[C@]4(C)[C@H]3CC[C@]12C [Ganaxolone] | Inactive | Inactive | 25.3 µM | – | 3.37 µM | Inactive | – | – | – |
| CNC(=O)Oc1ccccc1C(C)C [Isoprocarb] | Inconclusive inhibitor | Inactive | 35.6 µM | 63.5 µM | 49.3 µM | – | – | – | – |
| O=[N+]([O-])c1c(Cl)c(Cl)c(Cl)c(Cl)c1Cl [Pentachloronitrobenzene] | Inconclusive inhibitor | Inactive | 1.94 µM | – | 4.7 µM | Inconclusive inhibitor | – | – | – |
| Cc1ccc2ccccc2n1 [Quinaldine] | Inactive | Inactive | 44 µM | – | 47.7 µM | Inactive | – | – | – |
| CCNc1nc(NCC)nc(SC)n1 [Simetryn] | Inconclusive activator | Inactive | 8.11 µM | – | 46.2 µM | Inconclusive inhibitor | – | – | – |
| CCNc1nc(NC(C)(C)C)nc(SC)n1 [Terbutryn] | Inconclusive activator | Inactive | 7.74 µM | 39.6 µM | 11.5 µM | – | – | – | – |
